PubChem BioAssay (NCI)
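Interpolation was linear, between the two tested concentrations surrounding the appropriate level; five concentrations were tested over 48 hours in 96-well plates. At the TGI there is no net growth.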

Tests used:
Assay in all cases: growth of human tumour cells (NCI), 48 h
SR leukemia = tested on: SR leukemia
LOX IMVI melanoma = tested on: LOX IMVI melanoma
A498 renal = tested on: A498 renal
SK-MEL-2 melanoma = tested on: SK-MEL-2 melanoma
RPMI-8226 leukemia = tested on: RPMI-8226 leukemia
SF-295 CNS = tested on: SF-295 CNS
SK-OV-3 ovarian = tested on: SK-OV-3 ovarian
786-0 renal = tested on: 786-0 renal
ACHN renal = tested on: ACHN renal
K-562 leukemia = tested on: K-562 leukemia
NCI-H23 lung = tested on: NCI-H23 lung
SW-620 colon = tested on: SW-620 colon
HOP-92 NSCLC = tested on: HOP-92 NSCLC
UO-31 renal = tested on: UO-31 renal
MDA-MB-435 = tested on: MDA-MB-435
HL-60(TB) leukemia = tested on: HL-60(TB) leukemia
UACC-62 melanoma = tested on: UACC-62 melanoma
COLO 205 colon = tested on: COLO 205 colon
IGROV1 ovarian = tested on: IGROV1 ovarian
BT-549 breast = tested on: BT-549 breast
PC-3 prostate = tested on: PC-3 prostate
HS 578T breast = tested on: HS 578T breast
DU-145 prostate = tested on: DU-145 prostate
U251 CNS = tested on: U251 CNS
HCT-15 colon = tested on: HCT-15 colon
HT29 colon = tested on: HT29 colon
MDA-N = tested on: MDA-N
MCF7 breast = tested on: MCF7 breast
HCT-116 colon = tested on: HCT-116 colon
KM12 colon = tested on: KM12 colon
HCC-2998 colon = tested on: HCC-2998 colon
OVCAR-8 ovarian = tested on: OVCAR-8 ovarian
EKVX NSCLC = tested on: EKVX NSCLC
SK-MEL-5 melanoma = tested on: SK-MEL-5 melanoma
CAKI-1 renal = tested on: CAKI-1 renal
TK-10 renal = tested on: TK-10 renal
A549 NSCLC = tested on: A549 NSCLC
M14 melanoma = tested on: M14 melanoma
OVCAR-5 ovarian = tested on: OVCAR-5 ovarian
NCI-H226 lung = tested on: NCI-H226 lung
SNB-75 CNS = tested on: SNB-75 CNS
OVCAR-3 ovarian = tested on: OVCAR-3 ovarian
SNB-19 CNS = tested on: SNB-19 CNS
UACC-257 melanoma = tested on: UACC-257 melanoma
MDA-MB-231 breast = tested on: MDA-MB-231 breast
OVCAR-4 ovarian = tested on: OVCAR-4 ovarian
NCI/ADR-RES ovarian = tested on: NCI/ADR-RES ovarian
SN12C renal = tested on: SN12C renal
NCI-H522 lung = tested on: NCI-H522 lung
MALME-3M melanoma = tested on: MALME-3M melanoma
CCRF-CEM leukemia = tested on: CCRF-CEM leukemia
HOP-62 NSCLC = tested on: HOP-62 NSCLC
MOLT-4 leukemia = tested on: MOLT-4 leukemia
SF-268 CNS = tested on: SF-268 CNS
NCI-H460 lung = tested on: NCI-H460 lung
T-47D breast = tested on: T-47D breast
SF-539 CNS = tested on: SF-539 CNS
RXF 393 renal = tested on: RXF 393 renal
SK-MEL-28 melanoma = tested on: SK-MEL-28 melanoma

CC(=O)OCC1OC(n2cnc3nc(Br)[nH]c(=O)c32)C(OC(C)=O)C1OC(C)=O (configuration not stated)
TGI (SR leukemia): > 100 µM
TGI (LOX IMVI melanoma): > 100 µM
TGI (A498 renal): > 100 µM
TGI (SK-MEL-2 melanoma): > 100 µM
TGI (RPMI-8226 leukemia): > 100 µM
TGI (SF-295 CNS): > 100 µM
TGI (SK-OV-3 ovarian): > 100 µM
TGI (786-0 renal): > 100 µM
TGI (ACHN renal): > 100 µM
TGI (K-562 leukemia): > 100 µM
TGI (NCI-H23 lung): > 100 µM
TGI (SW-620 colon): > 100 µM
TGI (HOP-92 NSCLC): > 100 µM
TGI (UO-31 renal): > 100 µM
TGI (MDA-MB-435): > 100 µM
TGI (HL-60(TB) leukemia): > 100 µM
TGI (UACC-62 melanoma): > 100 µM
TGI (COLO 205 colon): > 100 µM
TGI (IGROV1 ovarian): > 100 µM
TGI (BT-549 breast): > 100 µM
TGI (PC-3 prostate): > 100 µM
TGI (HS 578T breast): > 100 µM
TGI (DU-145 prostate): > 100 µM
TGI (U251 CNS): > 100 µM
TGI (HCT-15 colon): > 100 µM
TGI (HT29 colon): > 100 µM
TGI (MDA-N): > 100 µM
TGI (MCF7 breast): > 100 µM
TGI (HCT-116 colon): > 100 µM
TGI (KM12 colon): > 100 µM
TGI (HCC-2998 colon): > 100 µM
TGI (OVCAR-8 ovarian): > 100 µM
TGI (EKVX NSCLC): > 100 µM
TGI (SK-MEL-5 melanoma): > 100 µM
TGI (CAKI-1 renal): > 100 µM
TGI (TK-10 renal): > 100 µM
TGI (A549 NSCLC): > 100 µM
TGI (M14 melanoma): > 100 µM
TGI (OVCAR-5 ovarian): > 100 µM
TGI (NCI-H226 lung): > 100 µM
TGI (SNB-75 CNS): > 100 µM
TGI (OVCAR-3 ovarian): > 100 µM
TGI (SNB-19 CNS): > 100 µM
TGI (UACC-257 melanoma): > 100 µM
TGI (MDA-MB-231 breast): > 100 µM
TGI (OVCAR-4 ovarian): > 100 µM
TGI (NCI/ADR-RES ovarian): > 100 µM
TGI (SN12C renal): > 100 µM
TGI (NCI-H522 lung): > 100 µM
TGI (MALME-3M melanoma): > 100 µM
TGI (CCRF-CEM leukemia): > 100 µM
TGI (HOP-62 NSCLC): > 100 µM
TGI (MOLT-4 leukemia): > 100 µM
TGI (SF-268 CNS): > 100 µM
TGI (NCI-H460 lung): > 100 µM
TGI (T-47D breast): > 100 µM
TGI (SF-539 CNS): > 100 µM
TGI (RXF 393 renal): > 100 µM

CCOC(=O)/C=C(/C(=O)OCC)n1cc(C)c(=O)n(Cc2cnnn2COCCOC(C)=O)c1=O
TGI (SR leukemia): 39.6 µM
TGI (LOX IMVI melanoma): 32 µM
TGI (A498 renal): 90 µM
TGI (SK-MEL-2 melanoma): 60.3 µM
TGI (RPMI-8226 leukemia): 23.8 µM
TGI (SF-295 CNS): > 100 µM
TGI (SK-OV-3 ovarian): > 100 µM
TGI (786-0 renal): 22.5 µM
TGI (ACHN renal): 16.5 µM
TGI (K-562 leukemia): 24.8 µM
TGI (NCI-H23 lung): 31.5 µM
TGI (SW-620 colon): > 55.6 µM
TGI (HOP-92 NSCLC): 8.22 µM
TGI (UO-31 renal): 30.4 µM
TGI (MDA-MB-435): 38.2 µM
TGI (HL-60(TB) leukemia): 13.5 µM
TGI (UACC-62 melanoma): 30.5 µM
TGI (COLO 205 colon): 11.8 µM
TGI (IGROV1 ovarian): 32.7 µM
TGI (BT-549 breast): 31.7 µM
TGI (PC-3 prostate): 37.7 µM
TGI (HS 578T breast): 74 µM
TGI (DU-145 prostate): > 52.8 µM
TGI (U251 CNS): 57.1 µM
TGI (HCT-15 colon): > 49.1 µM
TGI (HT29 colon): 27.6 µM
TGI (MDA-N): 48.5 µM
TGI (MCF7 breast): 36 µM
TGI (HCT-116 colon): 28.4 µM
TGI (SK-MEL-28 melanoma): 47.5 µM
TGI (KM12 colon): 56.2 µM
TGI (HCC-2998 colon): 39.1 µM
TGI (OVCAR-8 ovarian): 29.1 µM
TGI (EKVX NSCLC): 29.3 µM
TGI (SK-MEL-5 melanoma): 51.5 µM
TGI (CAKI-1 renal): 11 µM
TGI (TK-10 renal): 12.3 µM
TGI (A549 NSCLC): > 84.2 µM
TGI (M14 melanoma): 31.8 µM
TGI (OVCAR-5 ovarian): 36.9 µM
TGI (NCI-H226 lung): 28.7 µM
TGI (SNB-75 CNS): > 67.2 µM
TGI (OVCAR-3 ovarian): 32.3 µM
TGI (SNB-19 CNS): > 100 µM
TGI (UACC-257 melanoma): 28.6 µM
TGI (MDA-MB-231 breast): 36.1 µM
TGI (OVCAR-4 ovarian): 47 µM
TGI (NCI/ADR-RES ovarian): 61.3 µM
TGI (SN12C renal): 52.4 µM
TGI (NCI-H522 lung): 3.65 µM
TGI (MALME-3M melanoma): 13.3 µM
TGI (CCRF-CEM leukemia): 5.8 µM
TGI (HOP-62 NSCLC): > 100 µM
TGI (MOLT-4 leukemia): 18.8 µM
TGI (SF-268 CNS): 42.5 µM
TGI (NCI-H460 lung): > 61.5 µM
TGI (T-47D breast): 46.7 µM
TGI (SF-539 CNS): 19.4 µM
TGI (RXF 393 renal): 29.6 µM
